Results reported in patent US10238670B2, “9-aminomethyl minocycline compounds and methods of use thereof in urinary tract infection (UTI) treatment” (Paratek Pharmaceuticals, Inc., priority 2016, dated 2019).
Read-outs that look alike come from different tables or passages of the source.

Test: Phase 1b study in female adults with cystitis, urine PK
Assay type: in vivo, human
Settings: for Ae0-24 (amount excreted in urine): mean; for clearance: female, human, urine and plasma
Description: Urine was collected, the volume recorded, and analyzed for Compound 1 concentration at the following times: • Day 1 to 2: pooled total urine 0 to 4, 4 to 8, 8 to 12, and 12-24 hours after the t=0 h dose; Collection of the 12 to 24 h sample should be completed prior to the t=24 h dose on Day 2; • Day 5 to 6: pooled total urine 0 to 4, 4 to 8, 8 to 12, and 12-24 hours after the t=96 h dose;
Urine was pooled during the intervals above. At the end of each interval, the time and total volume were recorded.
Compound 1 urine concentration data was used to determine the amount excreted in a dosing interval, the urinary excretion rate, and, in conjunction with the plasma concentration data, to estimate the renal clearance (CLr) of Compound 1.
Urine was collected and the volume recorded at the following times: • Day 1 to 2: pooled total urine 0 to 4, 4 to 8, 8 to 12, and 12-24 hours after the t=0 h dose; • Day 5 to 6: pooled total urine 0 to 4, 4 to 8, 8 to 12, and 12-24 hours after the t=96 h dose;
At the end of each collection time period the pooled urine was frozen at −20° C. or colder and the total volume of urine collected for the time period was recorded. The samples were kept frozen at −20° C. or colder pending shipment to the bioanalytical laboratory.
The urine sample volume, its Compound 1 concentration, the amount of Compound 1 excreted in the urine (product of volume and concentration) over a dosing interval, the urinary excretion rates and renal clearance (CLr) of Compound 1 following the initial Day 1 and final Day 5 doses were summarized by the treatment groups.

[1] = Day 1, 0-4 hour Post t = 0, IV_PO300
[2] = Day 1, 0-4 hour Post t = 0, PO300
[3] = Day 1, 0-4 hour Post t = 0, PO450
[4] = Day 1, 4-8 hour Post t = 0, IV_PO300
[5] = Day 1, 4-8 hour Post t = 0, PO300
[6] = Day 1, 4-8 hour Post t = 0, PO450
[7] = Day 1, 8-12 hour Post t = 0, IV_PO300
[8] = Day 1, 8-12 hour Post t = 0, PO300
[9] = Day 1, 8-12 hour Post t = 0, PO450
[10] = Day 1-2, 12-24 hour Post t = 0, IV_PO300
[11] = Day 1-2, 12-24 hour Post t = 0, PO300
[12] = Day 1-2, 12-24 hour Post t = 0, PO450
[13] = Day 1, 200 mg IV, 300 mg po (n = 11)
[14] = Day 5, 0-4 hour Post t = 96, IV_PO300
[15] = Day 5, 0-4 hour Post t = 96, PO300
[16] = Day 5, 0-4 hour Post t = 96, PO450
[17] = Day 5, 4-8 hour Post t = 96, IV_PO300
[18] = Day 5, 4-8 hour Post t = 96, PO300
[19] = Day 5, 4-8 hour Post t = 96, PO450
[20] = Day 5, 8-12 hour Post t = 96, IV_PO300
[21] = Day 5, 8-12 hour Post t = 96, PO300
[22] = Day 5, 8-12 hour Post t = 96, PO450
[23] = Day 5-6, 12-24 hour Post t = 96, IV_PO300
[24] = Day 5-6, 12-24 hour Post t = 96, PO300
[25] = Day 5-6, 12-24 hour Post t = 96, PO450
[26] = Day 5, 200 mg IV, 300 mg po (n = 11)

CN(C)c1cc(CNCC(C)(C)C)c(O)c2c1C[C@H]1C[C@H]3[C@H](N(C)C)C(O)=C(C(N)=O)C(=O)[C@@]3(O)C(O)=C1C2=O [Compound 1, 9-[(2,2-dimethyl-propylamino)-methyl]-minocycline]
Urine Concentration, Mean [1]: 65360.0 ng/mL | Urine Concentration, Median [1]: 55000.0 ng/mL | Urine Concentration, Mean [2]: 14003.0 ng/mL | Urine Concentration, Median [2]: 14020.0 ng/mL | Urine Concentration, Mean [3]: 23008.0 ng/mL | Urine Concentration, Median [3]: 10500.0 ng/mL | Urine Concentration, Mean [4]: 43548.2 ng/mL | Urine Concentration, Median [4]: 40900.0 ng/mL | Urine Concentration, Mean [5]: 19088.9 ng/mL | Urine Concentration, Median [5]: 16800.0 ng/mL | Urine Concentration, Mean [6]: 20537.8 ng/mL | Urine Concentration, Median [6]: 15500.0 ng/mL | Urine Concentration, Mean [7]: 32407.3 ng/mL | Urine Concentration, Median [7]: 33700.0 ng/mL | Urine Concentration, Mean [8]: 19981.0 ng/mL | Urine Concentration, Median [8]: 13650.0 ng/mL | Urine Concentration, Mean [9]: 11699.0 ng/mL | Urine Concentration, Median [9]: 8995.0 ng/mL | Urine Concentration, Mean [10]: 22410.0 ng/mL | Urine Concentration, Median [10]: 19300.0 ng/mL | Urine Concentration, Mean [11]: 20772.0 ng/mL | Urine Concentration, Median [11]: 21300.0 ng/mL | Urine Concentration, Mean [12]: 25713.0 ng/mL | Urine Concentration, Median [12]: 19550.0 ng/mL | fe0-24 [dose absorbed] [13]: 20.4% | fe0-24 [dose administered] [13]: 20.4% | Ae0-24 (amount excreted in urine) (Day 1, 200 mg IV, 300 mg po (n = 11), total dose 200 IV): 40.70 mg | fe0-24 [dose absorbed] (Day 1, 300 mg po (n = 10)): 18.7% | fe0-24 [dose administered] (Day 1, 300 mg po (n = 10)): 6.5% | Ae0-24 (amount excreted in urine) (Day 1, 300 mg po (n = 10), total dose 600 po): 39.24 mg | fe0-24 [dose absorbed] (Day 1, 450 mg po (n = 10)): 11.4% | fe0-24 [dose administered] (Day 1, 450 mg po (n = 10)): 4.0% | Ae0-24 (amount excreted in urine) (Day 1, 450 mg po (n = 10), total dose 900 po): 35.95 mg | Urine Concentration, Mean [14]: 42710.0 ng/mL | Urine Concentration, Median [14]: 26250.0 ng/mL | Urine Concentration, Mean [15]: 30900.0 ng/mL | Urine Concentration, Median [15]: 26850.0 ng/mL | Urine Concentration, Mean [16]: 35988.9 ng/mL | Urine Concentration, Median [16]: 25700.0 ng/mL | Urine Concentration, Mean [17]: 26090.0 ng/mL | Urine Concentration, Median [17]: 28500.0 ng/mL | Urine Concentration, Mean [18]: 29111.1 ng/mL | Urine Concentration, Median [18]: 18200.0 ng/mL | Urine Concentration, Mean [19]: 48117.0 ng/mL | Urine Concentration, Median [19]: 33700.0 ng/mL | Urine Concentration, Mean [20]: 33237.0 ng/mL | Urine Concentration, Median [20]: 14850.0 ng/mL | Urine Concentration, Mean [21]: 25350.0 ng/mL | Urine Concentration, Median [21]: 19600.0 ng/mL | Urine Concentration, Mean [22]: 30466.0 ng/mL | Urine Concentration, Median [22]: 20600.0 ng/mL | Urine Concentration, Mean [23]: 21480.0 ng/mL | Urine Concentration, Median [23]: 12590.0 ng/mL | Urine Concentration, Mean [24]: 17940.0 ng/mL | Urine Concentration, Median [24]: 16000.0 ng/mL | Urine Concentration, Mean [25]: 30280.0 ng/mL | Urine Concentration, Median [25]: 23400.0 ng/mL | fe0-24 [dose absorbed] [26]: 30.7% | fe0-24 [dose administered] [26]: 10.8% | Ae0-24 (amount excreted in urine) (Day 5, 200 mg IV, 300 mg po (n = 11), total dose 300 po): 32.27 mg | fe0-24 [dose absorbed] (Day 5, 300 mg po (n = 10)): 36.4% | fe0-24 [dose administered] (Day 5, 300 mg po (n = 10)): 12.7% | Ae0-24 (amount excreted in urine) (Day 5, 300 mg po (n = 10), total dose 300 po): 38.21 mg | fe0-24 [dose absorbed] (Day 5, 450 mg po (n = 10)): 34.8% | fe0-24 [dose administered] (Day 5, 450 mg po (n = 10)): 12.2% | Ae0-24 (amount excreted in urine) (Day 5, 450 mg po (n = 10), total dose 450 po): 54.87 mg | clearance (intravenous, 200 mg, Day 1, IV_PO300, read-out: Renal CL, Geo. Mean (converted)): 33 mL/min | clearance (intravenous, 200 mg, Day 1, IV_PO300, read-out: Renal CL, Mean (converted)): 38.3 mL/min | clearance (intravenous, 200 mg, Day 1, IV_PO300, read-out: Renal CL, Median (converted)): 27.2 mL/min | clearance (oral, 300 mg, Day 5, IV_PO300, read-out: Renal CL, Geo. Mean (converted)): 63 mL/min | clearance (oral, 300 mg, Day 5, IV_PO300, read-out: Renal CL, Mean (converted)): 94.6 mL/min | clearance (oral, 300 mg, Day 5, IV_PO300, read-out: Renal CL, Median (converted)): 44 mL/min | clearance (oral, 300 mg, Day 5, PO300, read-out: Renal CL, Geo. Mean (converted)): 57.4 mL/min | clearance (oral, 300 mg, Day 5, PO300, read-out: Renal CL, Mean (converted)): 78.2 mL/min | clearance (oral, 300 mg, Day 5, PO300, read-out: Renal CL, Median (converted)): 58.6 mL/min | clearance (oral, 450 mg, Day 5, PO450, read-out: Renal CL, Geo. Mean (converted)): 21.5 mL/min | clearance (oral, 450 mg, Day 5, PO450, read-out: Renal CL, Mean (converted)): 29.1 mL/min | clearance (oral, 450 mg, Day 5, PO450, read-out: Renal CL, Median (converted)): 27.8 mL/min | Ae 0-4 hrs, Geo. Mean (urine, Day 1, IV_PO300): 11.59 mg | Ae 0-4 hrs, Mean (urine, Day 1, IV_PO300): 13.80 mg | Ae 0-4 hrs, Median (urine, Day 1, IV_PO300): 9.74 mg | Ae 0-24 hrs, Geo. Mean (urine, Day 1, IV_PO300): 36.98 mg | Ae 0-24 hrs, Median (urine, Day 1, IV_PO300): 41.40 mg | Ae 4-8 hrs, Geo. Mean (urine, Day 1, IV_PO300): 7.28 mg | Ae 4-8 hrs, Mean (urine, Day 1, IV_PO300): 8.61 mg | Ae 4-8 hrs, Median (urine, Day 1, IV_PO300): 7.96 mg | Ae 8-12 hrs, Geo. Mean (urine, Day 1, IV_PO300): 5.53 mg | Ae 8-12 hrs, Mean (urine, Day 1, IV_PO300): 6.80 mg | Ae 8-12 hrs, Median (urine, Day 1, IV_PO300): 6.17 mg | Ae 12-24 hrs, Geo. Mean (urine, Day 1, IV_PO300): 12.70 mg
